Laboratory results from patent US10758513B2, “Modulators of mitochondrial protein import” (THE REGENTS OF THE UNIVERSITY OF CALIFORNIA, priority 2011, dated 2020).

Assays:
Erv1 = biological target: T1, Erv1 (Saccharomyces cerevisiae, UniProt P27882); assay: Reconstitution of substrate oxidation with Mia40 and Erv1; assay type: biochemical, yeast; conditions: after three hours; DMSO control approximately 80%
T1 construct: made in house
T1 sequence (P27882 1-189): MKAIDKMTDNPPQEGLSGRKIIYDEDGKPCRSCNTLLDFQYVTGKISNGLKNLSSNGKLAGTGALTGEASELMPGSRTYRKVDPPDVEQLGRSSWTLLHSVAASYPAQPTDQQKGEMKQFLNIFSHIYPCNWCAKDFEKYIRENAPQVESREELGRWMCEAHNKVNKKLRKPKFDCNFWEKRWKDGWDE
Procedure: (A) Mitochondria from a strain expressing C-terminal histidine-tagged Erv1 were incubated with 50 μM MitoBloCK-6 or 1% DMSO for 30 min at 25° C. followed by solubilization in 1% digitonin buffer. As a control, 100 μg of extract was withdrawn (T), and 500 μg lysate was incubated with Ni+^2-agarose beads. The beads were washed and bound proteins (B) were eluted with SDS-PAGE sample buffer. To test effectiveness of binding, 100 μg of the unbound protein fraction (S) was also included. Proteins were analyzed by immunoblotting with polyclonal antibodies against Mia40, Erv1, and cyt c. […] Oxidized and reduced Tim13 were detected by non-reducing SDS-PAGE and immunoblotting with antibodies against Tim13.
Reconstitution studies with reduced Tim13 were performed as described previously (Tienson et al., 2009). […] H2O2 levels in the reconstitution assays were measured using the Amplex Red Hydrogen Peroxide/Peroxidase Assay kit according to the manufacturer's protocol (Dabir et al., 2007) (Invitrogen). […] The Erv1 or ALR-catalyzed reduction of 02 to H2O2 was measured by a FlexStation plate reader (Molecular Devices) controlled via the SoftMax Pro software package (Molecular Devices) for data acquisition. […]

HSF1 hESCs = assay: Assays in human embryonic stem cells (HSF1); assay type: cell-based; conditions: 20 μM; alkaline phosphatase staining
Procedure: Human embryonic stem cell (hESCs) line hSF1 was cultured in Stem Pro SFM (Gibco) supplemented with 10 ng/ml bFGF on Matrigel (BD Biosciences) coated plates under 5% CO2, 95% air. Differentiation involved culturing cells in Stem Pro SFM with 10 μM retinoic acid (Acros Organics) for 4 days. Cells were treated with the specific concentration of the compounds or 1% DMSO as a control. For the induction of apoptosis, cells were exposed to 20 μM actinomycin D (Sigma) with or without 100 μM z-VAD-FMK (MP Biomedical). Following treatment, cells were fixed with 3.7% formaldehyde for indirect immunofluorescence study or lysed with Triton buffer (25 mM Tris-HCl pH 7.5, 150 mM NaCl, 1% Triton X-100, 1 mM EDTA) for analysis by SDS-PAGE. Bright field images were acquired with Exi Blue (QImaging). Immunofluorescent images were acquired with a 63× oil immersion objective on an LSM 5 PASCAL Laser Scanning Microscope (Carl Zeiss). Antibodies against cyt c (BD Pharmingen), Tom20 (Santa Cruz), cleaved caspase-3 (Cell Signaling) and poly (ADP-ribose) polymerase (Cell Signaling) were purchased from the indicated vendors. Alkaline phosphatase activity staining was performed with the leukocyte alkaline phosphatase kit (Sigma) as per manufacturer's protocol. […]

[1] = tested on: tim10-1 tim9S mitochondria; assay: Respiration (oxygen electrode) of tim10-1 tim9S mitochondria; assay type: biochemical, yeast; conditions: NADH; 25 μM MitoBloCK-1; CCCP as control
Procedure: Oxygen consumption of […] mitochondria was measured using methods previously described (8). Briefly, purified […] mitochondria aliquots (25 mg/mL) were thawed on ice and tested within 2 hours. A Clark-type oxygen electrode in a stirred, thermostatically controlled 1.5-ml chamber at 25° C. (Oxytherm; Hansatech) facilitated measurement. […] Consumption rate was monitored for approximately 2 min.

Structure (SMILES) | Tim13 oxidized (Erv1) | time at which hESC viability started to decline (HSF1 hESCs) | rate of respiration [1]
Oc1c(Cl)cc(Cl)cc1/C=N/c1ccc(Nc2ccccc2)cc1 [MitoBloCK-6] | 15% | > 5 h | 
NC(=S)N/N=C/c1c(O)c(Br)cc2oc3c(c12)CCCC3 [MitoBloCK-1] |  |  | did not significantly alter the rate of respiration
